Results taken from patent publication US20250034200A1, “Prodrugs of Neurosteroid Analogs and Uses Thereof” (priority 2021, published 2025).
Where a name gives a salt, the structure may show the parent alone. Read-outs that look alike come from different tables or passages of the source.

What was measured:
[1] = Aqueous stability assay (HPLC, pseudo first-order half-life); format: physicochemical; details: DPBS pH 7.0-7.3, 1 mg/mL, room temperature; for half-life at 1 mg/mL / half-life: buffer, read-out: PBS t1/2 (converted)
Method: Aqueous stability experiments were performed on an Agilent 1100 HPLC equipped with an Agilent 1200 autosampler. HPLC grade solvents were exclusively used during analysis, with acetonitrile being purchased from Sigma Aldrich, and water and formic acid provided by Fisher Scientific. […]
[…] All mixtures were then sonicated for 5 min or stirred until complete dissolution was achieved. Any precipitate observed in sample solutions was filtered with a PTFE syringe filter prior to analysis. Immediately after sample preparation, injection by the HPLC autosampler was performed, which was recorded as the initial time point (t=0 min). Samples were then kept in the autosampler at room temperature and injected at designated intervals without additional filtration or sample modification. Next, the area of the parent peak in each chromatogram was determined by automated integration in the Agilent ChemStation software. Pseudo first-order half-lives were then ascertained by calculating the percent of the parent compound remaining after each time point. Plots of time (x-axis) vs. the natural logarithm of percent parent remaining (y-axis) were subsequently constructed to determine the slope. Finally, the aqueous stability was evaluated using the following equation:
The HPLC conditions were as follows: injection volume, 1 μL; column temperature: 40° C.; detector: 254 nm; stationary phase: Zorbax Eclipse XDB-C18 (4.6×150 mm, 5 μm); flow rate: 1 mL/min; mobile phase: 80-95% acetonitrile in H2O (0.1% formic acid).

[2] = Plasma stability assay (LC-MS/MS); format: in vitro ADME; details: human plasma, 37° C., 3 μM
Method: Procaine and procainamide were purchased from Sigma Aldrich. HPLC-grade acetonitrile, water, methanol, and formic acid were purchased from Fisher Scientific. Human plasma (Cat. No. […]2N) was obtained from BIOIVT, and PBS (1×Dulbecco's, pH 7.4) from Thermo Fisher Scientific.
Test compounds were dissolved in DMSO to make a stock solution of 10 mM and then diluted to 500 μM in buffer or 70% methanol. Human plasma was thawed at ambient temperature and aliquoted (994.0 μL) to a 1.5 mL Eppendorf tube in duplicates (vials A and B) for each compound. The plasma was incubated at 37° C. for 10 min in an incubator shaker at 150 RPM; the reaction was initiated by addition of the test compound (6.0 μL), followed by vortex mixing. The total reaction volume was 1000 μL, the final organic solvent concentrations were […] (when 70% methanol was used for dilution) and 0.03% DMSO, and the final concentration of the test compound was 3 μM. The spiked plasma samples were incubated at 37° C. for 4 h. The reactions were terminated at time point 0, 15, 30, 60, 120, 180, and 240 min by taking a 100 μL aliquot from the test incubation mixture and immediately quenching it by adding it into ice-cold acetonitrile or methanol (150 μL) containing 2 μM internal standard (ISTD), followed by vortex mixing. The ISTD was d5-7-ethoxy coumarin. The samples were then centrifuged at 15000 RPM for 25 min at 4° C., and the supernatant was transferred to an LC-MS vial for analysis by LC-MS/MS. Each time point was tested in duplicates followed by in-between blank washes to avoid carryover and to equilibrate the column.
Procaine (poor plasma stability) and procainamide (good plasma stability) were used as controls at the same concentration as that of the test compound. These controls were run in parallel to test the assay's competency. Matrix blank was prepared by adding acetonitrile or methanol containing ISTD to plasma samples without any of the test or control compounds. Also, an additional control sample was made to simply monitor compound degradation in PBS buffer.
Below is a summary of samples prepared for a given test compound in a typical plasma stability assay: • Test compound (TC): 994 μL human plasma+6.0 μL TC (Vial A) 994 μL human plasma+6.0 μL TC (Vial B) • Control: 596 μL human plasma+3.6 μL (procaine+procainamide) • Blank matrix: 500 μL PBS buffer+100 μL human plasma • Additional control: 142 μL PBS buffer+0.9 μL TC • Quenching mixture: 150 μL acetonitrile or methanol with ISTD (2 μM) • Final volume: 250 μL (100 μL from the incubation mixture+150 μL quenching mixture; final ISTD conc.: 1.2 μM)
LC-MS/MS analysis was performed using Agilent 1260 Infinity II HPLC, coupled with an Agilent G6460 triple quadrupole mass spectrometer (Agilent Technologies, USA). The data were acquired and processed using the Agilent 6460 Quantitative Analysis data processing software.
Reverse-phase HPLC separation for each compound was achieved on an Agilent InfinityLab Poroshell 120 C18 column (2.1×50 mm, 2.7 μm) with a mobile phase composed of methanol/water with 0.1% formic acid or acetonitrile/water with 0.1% formic acid at a flow rate of 0.5 mL/min. Each method was developed in the presence of the ISTD. The column temperature was maintained at 40° C. The detection was operated using the Agilent Jet-Stream electrospray positive ionization under the multiple reaction monitoring mode. The mass spec conditions were as follows: dwell time 100 ms; gas flow 10 L/min; nebulizer pressure 45 psi; delta EMV 200 V.
Plots of time (x-axis) vs. the natural logarithm of percent parent remaining (y-axis) were subsequently constructed to determine the slope. Finally, the plasma stability was evaluated using the following equation: […]

[3] = read-out: Plasma t1/2 (converted)

C/C(=N\OC(=O)OCCN)[C@H]1CC[C@H]2[C@@H]3CCC4=CC(=O)CC[C@]4(C)[C@H]3CC[C@]12C [32f, (8S,9S,10R,13S,14S,17S)-17-((E)-1-((((2-aminoethoxy)carbonyl)oxy)imino)ethyl)-10,13-dimethyl-1,2,6,7,8,9,10,11,12,13,14,15,16,17-tetradecahydro-3H-cyclopenta[a]phenanthren-3-one hydrochloride]
half-life at 1 mg/mL [1]: 0.11 ± 0.01 h

C/C(=N\OC(=O)N(C)Cc1ccccn1)[C@H]1CC[C@H]2[C@@H]3CCC4=CC(=O)CC[C@]4(C)[C@H]3CC[C@]12C [compound 36, (8S,9S,10R,13S,14S,17S)-10,13-dimethyl-17-((E)-1-(((methyl(pyridin-2-ylmethyl)carbamoyl)oxy)imino)ethyl)-1,2,6,7,8,9,10,11,12,13,14,15,16,17-tetradecahydro-3H-cyclopenta[a]phenanthren-3-one]
half-life [2, 3]: 222 h

C/C(=N\OC(=O)NCCCN)[C@H]1CC[C@H]2[C@@H]3CCC4=CC(=O)CC[C@]4(C)[C@H]3CC[C@]12C [32e, (8S,9S,10R,13S,14S,17S)-17-((E)-1-((((3-aminopropyl)carbamoyl)oxy)imino)ethyl)-10,13-dimethyl-1,2,6,7,8,9,10,11,12,13,14,15,16,17-tetradecahydro-3H-cyclopenta[a]phenanthren-3-one hydrochloride]
PBS t1/2 ([1]; d (days)): 120 days | half-life at 1 mg/mL [1]: 2880 h

C/C(=N\OC(=O)N(CCNC(C)(C)C)C(C)(C)C)[C@H]1CC[C@H]2[C@@H]3CCC4=CC(=O)CC[C@]4(C)[C@H]3CC[C@]12C.Cl [54c, (E)-6-(tert-butyl)-2-((8S,9S,10R,13S,14S,17S)-10,13-dimethyl-3-oxo-2,3,6,7,8,9,10,11,12,13,14,15,16,17-tetradecahydro-1H-cyclopenta[a]phenanthren-17-yl)-10,10-dimethyl-4-oxa-3,6,9-triazaundec-2-en-5-one hydrochloride]
half-life [1]: > 24 h | Plasma % rmn at 2 h ([2]; 2 h): 93%

C/C(=N\OC(=O)OC[C@@H]1CCCN1)[C@H]1CCC2[C@@H]3CCC4=CC(=O)CC[C@]4(C)[C@H]3CC[C@@]21C.Cl (stereo partly drawn) [32n, (8S,9S,10R,13S,17S)-10,13-dimethyl-17-((E)-1-((((((S)-pyrrolidin-2-yl)methoxy)carbonyl)oxy)imino)ethyl)-1,2,6,7,8,9,10,11,12,13,14,15,16,17-tetradecahydro-3H-cyclopenta[a]phenanthren-3-one hydrochloride]
half-life [1]: 0.09 ± 0.01 h

C/C(=N\OC(=O)N(C)CCNCCF)[C@H]1CC[C@H]2[C@@H]3CCC4=CC(=O)CC[C@]4(C)[C@H]3CC[C@]12C.O=C(O)C(F)(F)F [32o, (E)-2-((8S,9S,10R,13S,14S,17S)-10,13-dimethyl-3-oxo-2,3,6,7,8,9,10,11,12,13,14,15,16,17-tetradecahydro-1H-cyclopenta[a]phenanthren-17-yl)-11-fluoro-6-methyl-4-oxa-3,6,9-triazaundec-2-en-5-one 2,2,2-trifluoroacetate]
half-life at 1 mg/mL [1]: 36.1 ± 2.4 h | Plasma t1/2 [2]: 2.2 h

CNC[C@@H]1CCCN1C(=O)O/N=C(\C)[C@H]1CCC2[C@@H]3CCC4=CC(=O)CC[C@]4(C)[C@H]3CC[C@@]21C.Cl (stereo partly drawn) [32k, 1-((2S)-1-(((((E)-1-((8S,9S,10R,13S,17S)-10,13-dimethyl-3-oxo-2,3,6,7,8,9,10,11,12,13,14,15,16,17-tetradecahydro-1H-cyclopenta[a]phenanthren-17-yl)ethylidene)amino)oxy)carbonyl)pyrrolidin-2-yl)-N-methylmethanaminium chloride]
half-life ([1]; d (days)): > 720 h | half-life [2, 3]: > 4 h

C/C(=N\OC(=O)N1CCC[C@H]1CN)[C@H]1CCC2[C@@H]3CCC4=CC(=O)CC[C@]4(C)[C@H]3CC[C@@]21C (stereo partly drawn) [32h, ((2S)-1-(((((E)-1-((8S,9S,10R,13S,17S)-10,13-dimethyl-3-oxo-2,3,6,7,8,9,10,11,12,13,14,15,16,17-tetradecahydro-1H-cyclopenta[a]phenanthren-17-yl)ethylidene)amino)oxy)carbonyl)pyrrolidin-2-yl) methanaminium chloride]
half-life at 1 mg/mL ([1]; d (days)): > 720 h | half-life at 3 µM [2, 3]: > 4 h

CNCCN(CCC(=O)O)C(=O)O/N=C(\C)[C@H]1CC[C@H]2[C@@H]3CCC4=CC(=O)CC[C@]4(C)[C@H]3CC[C@]12C.O=C(O)C(F)(F)F [53h, 3-((((((E)-1-((8S,9S,10R,13S,14S,17S)-10,13-dimethyl-3-oxo-2,3,6,7,8,9,10,11,12,13,14,15,16,17-tetradecahydro-1H-cyclopenta[a]phenanthren-17-yl)ethylidene)amino)oxy)carbonyl)(2-(methylamino)ethyl)amino) propanoic acid 2,2,2-trifluoroacetate]
half-life [1]: > 24 h

CNCCN(CC(=O)O)C(=O)O/N=C(\C)[C@H]1CC[C@H]2[C@@H]3CCC4=CC(=O)CC[C@]4(C)[C@H]3CC[C@]12C.O=C(O)C(F)(F)F [53g, N-(((((E)-1-((8S,9S,10R,13S,14S,17S)-10,13-dimethyl-3-oxo-2,3,6,7,8,9,10,11,12,13,14,15,16,17-tetradecahydro-1H-cyclopenta[a]phenanthren-17-yl)ethylidene)amino)oxy)carbonyl)-N-(2-(methylamino)ethyl)glycine 2,2,2-trifluoroacetate]
half-life [1]: > 24 h

C/C(=N\OC(=O)N(C)CCNCCOC(F)(F)F)[C@H]1CC[C@H]2[C@@H]3CCC4=CC(=O)CC[C@]4(C)[C@H]3CC[C@]12C.Cl [compound 41, (E)-12-((8S,9S,10R,13S,14S,17S)-10,13-dimethyl-3-oxo-2,3,6,7,8,9,10,11,12,13,14,15,16,17-tetradecahydro-1H-cyclopenta[a]phenanthren-17-yl)-1,1,1-trifluoro-8-methyl-2,10-dioxa-5,8,11-triazatridec-11-en-9-one hydrochloride]
half-life [1]: 28.5 ± 1.8 h | half-life [2, 3]: 1.1 h

C/C(=N\OC(=O)N(C)C[C@@H]1C[C@@H](O)CN1)[C@H]1CC[C@H]2[C@@H]3CCC4=CC(=O)CC[C@]4(C)[C@H]3CC[C@]12C.O=C(O)C(F)(F)F [32m, (8S,9S,10R,13S,14S,17S)-17-((E)-1-((((((2S,4R)-4-hydroxypyrrolidin-2-yl)methyl)(methyl)carbamoyl)oxy)imino)ethyl)-10,13-dimethyl-1,2,6,7,8,9,10,11,12,13,14,15,16,17-tetradecahydro-3H-cyclopenta[a]phenanthren-3-one 2,2,2-trifluoroacetate]
half-life [1]: 1.3 h
